Experimental data published in patent publication US8536158B2, “Compounds having CRTH2 antagonist activity” (Atopix Therapeutics Limited, priority 2008, dated 2013).

How the values were obtained:
[1] = system: eosinophils in human whole blood; assay: Human whole blood eosinophil shape change assay (PGD2-induced); type: cell-based; conditions: for IC50: Eosinophil, 10 nM PGD2, human whole blood, read-out: IC50 for effect on 10 nM PGD2-induced eosinophil shape change in human whole blood
Procedure: Compounds 1-3 were assayed for their effect on PGD2 induced eosinophil shape change and were compared with Comparator Compounds A, B and D.
Compounds (1 μl, 200× final concentration) were added directly to 200 μl whole blood, mixed well and incubated for 15 min, 37° C., 5% CO2. After this time, cell shape was fixed by addition of 300 μl Cytofix™ buffer (BD Biosciences), 15 min on ice. 10 ml RBC lysis buffer was added to the fixed cells, incubated 5 min, at room temperature and centrifuged, 300×g for 5 min. Supernatant (containing lysed red cells) was removed and the lysis step was repeated. Leukocytes were resuspended in 250 μl RPMI/10% FCS and shape change analysed by FACS. Eosinophils were gated out based on their autofluorescence and 2000 eosinophil events were counted per sample. Data were analysed in triplicate.

Microsomal stability = type: in vitro ADME, human; conditions: for Mean Parent remaining (%): 1 x 10^-6 M test compound, human liver microsomes 0.3 mg/ml, mean of two experiments; for unmetabolised in human liver microsomes: text states
Procedure: The percentage of the test compound remaining in the sample after 1 hour was measured in order to determine the rate of metabolism of test compound. The results are shown in Table 3, which gives the results for two experiments and the mean value obtained.

[2] = In vivo pharmacokinetic profile in the dog; conditions: plasma
CRTH2 receptor = CRTH2 receptor (Homo sapiens (Human), UniProt Q9Y5Y4); assay: [3H]PGD2 radioligand binding assay on CHO/CRTH2 cell membranes; conditions: for Ki: [3H]PGD2, CHO/CRTH2 membranes
Procedure: Chinese Hamster Ovary cells were transfected with CRTH2 or DP receptors (CHO/CRTH2 and CHO/DP) and were maintained in culture in a humidified atmosphere at 37° C. (5% CO2) in Minimum Essential Medium (MEM) supplemented with 10% foetal bovine serum, 2 mM glutamine, and 1 mg ml^−1 active G418. The cells were passaged every 2-3 days. For radioligand binding assay, cells were prepared in triple-layer flasks or in 175 cm^2 square flasks (for membrane preparation).
Membranes were prepared either from CHO/CRTH2 and CHO/DP cells, or from platelets (as a source of TP receptors). CHO cells grown to confluency were washed with PBS and detached using a Versene solution (15 ml per flask). When the cells were grown in 175 cm^2 square flask, they were collected by scrapping in PBS. The cell suspensions were centrifuged (1,700 rpm, 10 min, 4° C.) and resuspended in 15 ml of buffer (1×HBSS, supplemented with 10 mM HEPES, pH 7.3). Cell suspensions were then homogenised using an Ultra Turrax at setting 4-6 for 20 s. The homogenate was centrifuged at 1,700 rpm for 10 min and the supernatant was collected and centrifuged at 20,000 rpm for 1 h at 4° C. The resulting pellet was resuspended in buffer and stored at −80° C. in aliquots of […] The protein concentration was determined by the method of Bradford (1976), using bovine serum albumin as standard. The platelets were washed by centrifugation at 600×g for 10 min and resuspended in ice-cold assay buffer (10 mM Tris-HCl, pH 7.4, 5 mM Glucose, 120 mM NaCl, 10 μM indomethacin) and directly centrifuged at 20,000 rpm for 30 min at 4° C. The resulting pellet was treated as described above.
[^3H]PGD2 (160 Ci/mmol) binding experiments were performed on membranes prepared as described above. Assays were performed in a final volume of 100 μl of buffer (1×HBSS/HEPES 10 mM, pH 7.3). Cell membranes (15 μg) were preincubated at room temperature with varying concentration of competing ligand for 15 min. [^3H]PGD2 was then added and the incubation continued for a further one hour at room temperature. The reaction was terminated by the addition of 200 μl ice-cold assay buffer to each well, followed by rapid filtration through Whatman GF/B glass fibre filters using a Unifilter Cell harvester (PerkinElmer Life Sciences) and six washes of 300 μl of ice-cold buffer. The Unifilter plates were dried at room temperature for at least 1 h and the radioactivity retained on the filters was determined on a Beta Trilux counter (PerkinElmer Life Sciences), following addition of 40 μl of Optiphase Hi-Safe 3 (Wallac) liquid scintillation. Non specific binding was defined in the presence of 10 μM unlabelled PGD2. Assays were performed in duplicate.

Sequence of CRTH2 receptor (Q9Y5Y4 whole entry): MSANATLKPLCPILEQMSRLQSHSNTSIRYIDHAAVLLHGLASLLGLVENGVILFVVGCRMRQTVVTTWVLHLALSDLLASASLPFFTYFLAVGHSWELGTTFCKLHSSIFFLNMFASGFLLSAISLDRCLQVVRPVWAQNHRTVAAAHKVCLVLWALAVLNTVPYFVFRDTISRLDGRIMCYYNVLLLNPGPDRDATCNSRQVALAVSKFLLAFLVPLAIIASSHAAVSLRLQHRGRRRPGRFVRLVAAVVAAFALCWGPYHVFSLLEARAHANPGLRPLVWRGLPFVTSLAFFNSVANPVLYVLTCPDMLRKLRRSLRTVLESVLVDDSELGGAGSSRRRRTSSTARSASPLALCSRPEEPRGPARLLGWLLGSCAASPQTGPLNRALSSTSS

| IC50 [1] [nM] | Mean Parent remaining (%) (Microsomal stability) | unmetabolised in human liver microsomes (Microsomal stability) [%] | Ki (CRTH2 receptor) [nM] | binding to the CRTH2 receptor (in words) (CRTH2 receptor) | half-life [2] [h] | stability in human microsomes (in words) (Microsomal stability; human microsomes) | SMILES | half-life ([2]; oral) [h] | CRTH2 antagonist potency under physiological conditions (in words) ([1]; eosinophil shape change test, whole blood) |
| --- | --- | --- | --- | --- | --- | --- | --- | --- | --- |
| 8 | – | – | 7 | – | – | – | Cc1c(Cc2ccc(S(C)(=O)=O)cc2)c2cc(F)ccc2n1CC(=O)O [Compound A, [3-(4-Methylsulfonyl-benzyl)-5-fluoro-2-methyl-indol-1-yl]-acetic acid] | 1 | – |
| – | 90 | 90 | 979 | bind only very weakly | – | – | Cc1c(Cc2ncccc2S(=O)(=O)c2ccccc2)c2cc(F)ccc2n1CC(=O)O [Compound C, [3-(3-Benzenesulfonyl-pyridin-2-ylmethyl)-5-fluoro-2-methyl-indol-1-yl]-acetic acid] | – | – |
| 10 | – | – | – | – | – | – | Cc1c(Cc2cccnc2S(=O)(=O)c2ccc(Cl)cc2)c2cc(F)ccc2n1CC(=O)O [Compound 3, [3-({2-[(4-Chlorobenzene)sulfonyl]pyridin-3-yl}methyl)-5-fluoro-2-methylindol-1-yl]-acetic acid] | – | – |
| 34 | 69 | 69 | 1 | – | – | – | Cc1c(Cc2ccncc2S(=O)(=O)c2ccccc2)c2cc(F)ccc2n1CC(=O)O [Compound B, [3-(3-Benzenesulfonyl-pyridin-4ylmethyl)-5-fluoro-2-methyl-indol-1-yl]-acetic acid] | – | not a particularly potent CRTH2 antagonist |
| 2.5 | 98 | 98 | – | – | 5 | – | Cc1c(Cc2cccnc2S(=O)(=O)c2ccc(F)cc2)c2cc(F)ccc2n1CC(=O)O [Compound 2, [5-Fluoro-3-({2-[(4-fluorobenzene)sulfonyl]pyridin-3-yl}methyl)-2-methylindol-1-yl]-acetic acid] | – | – |
| 8 | 24 | 24 | – | – | – | low stability | Cc1c(Cc2cccn2S(=O)(=O)c2ccccc2)c2cc(F)ccc2n1CC(=O)O [Compound D, [3-(1-Benzenesulfonyl-1H-pyrrol-2-ylmethyl)-5-fluoro-2-methyl-indol-1-yl]-acetic acid] | – | – |
| – | – | – | 258 | bind only very weakly | – | – | Cc1c(Cc2cccnc2)c2cc(F)ccc2n1CC(=O)O [Compound E] | – | – |

| SMILES | IC50 [1] [nM] | Mean Parent remaining (%) (Microsomal stability) | unmetabolised in human liver microsomes (Microsomal stability) [%] | Ki (CRTH2 receptor) [nM] | binding to the CRTH2 receptor (in words) (CRTH2 receptor) | half-life [2] [h] | stability in human microsomes (in words) (Microsomal stability; human microsomes) | half-life ([2]; oral) [h] | CRTH2 antagonist potency under physiological conditions (in words) ([1]; eosinophil shape change test, whole blood) |
| --- | --- | --- | --- | --- | --- | --- | --- | --- | --- |
| Cc1c(Cc2cccnc2S(=O)(=O)c2ccccc2)c2cc(F)ccc2n1CC(=O)O [Compound 1, (3-{[2-(Benzenesulfonyl)pyridin-3-yl]methyl}-5-fluoro-2-methylindol-1-yl)-acetic acid] | 9 | 96 | 96 | 2 | – | – | – | 3 | – |
